Measurements published in US20150093398A1, “Methods and Compositions for Treating or Preventing Cancer” (MERCK SHARP & DOHME CORP., priority 2005, published 2015).

Assays:
[1] = system: Hs700T malignant pancreatic cells; assay: Hs700T pancreatic xenograft tumor growth in mice (04 IGFR-16, 19D12 and Gemzar combination);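 further: subcutaneous flank xenografts in athymic nude mice, treated once tumors averaged 100 mm^3, antibody given intraperitoneally twice weekly, tumor size measured by calipers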
Protocol: (§1) Athymic nude mice were inoculated with tumor cells in the right flank, subcutaneously, along with Matrigel (1:1 cells:gel). In these experiments, 5×10^6 cells/mouse in a 1:1 mix with regular matrigel were inoculated subcutaneously. Tumor size was measured with calipers and the data was entered into the labcat program. Mice were grouped with average size of 100 mm^3. Tumor size and body weight were measured twice weekly.
(§2) In these experiments, mice were dosed twice per week, intraperitoneally (i.p.) with antibody 19D12 and chemotherapeutic agents at the indicated frequency. Tumor size and mouse body weight was measured twice weekly after treatment.

[2] = system: SJSA-1 osteosarcoma cells; assay: SJSA-1 osteosarcoma xenograft model (05-IGFR-21), dosing from 15 days after inoculation; assay type: in vivo, female nude mouse (strain NU/NU)
Protocol: Xenograft tumor size was measured twice per week with a caliper and captured electronically by the LabCat program. […] For the experiments set forth in Table 9, dosing was initiated 15 days after inoculation. […] Xenograft tumor size was measured twice per week with a caliper and captured electronically by the LabCat program.

[3] = system: SJSA-1 osteosarcoma cells; assay: SJSA-1 osteosarcoma xenograft model (05-IGFR-12), dosing from day 18 post inoculation; assay type: in vivo, female nude mouse (strain NU/NU); settings: 100 mpk Cytoxan
Protocol: About 7 million SJSA-1 osteosarcoma cells were inoculated subcutaneously to the flank of each female nude mouse (strain NU/NU from Charles River, age ˜6 wks-old, average weight ˜20 gram). For the experiment set forth in Table 8, dosing was initiated on day 18 post inoculation, when the xenograft tumor reached an average size of about 100 mm^3. Anti-IGF1R antibody (19D12 Light chain F/Heavy chain A (as set forth above)) was given ip twice a week at the dose of either 0.02 mg, 0.1 and 0.5 mg per mouse, while cytotoxic Cytoxan (cyclophosphamide) was given ip twice per week at the dose of 100 mpk for a total of 3 injection during the course of the study. Xenograft tumor size was measured twice per week with a caliper and captured electronically by the LabCat program.

[4] = system: SJCRH30 rhabdomyosarcoma cells; assay: SJCRH30 rhabdomyosarcoma xenograft tumor growth in mice (05 IGFR-01, 19D12 and Cytoxan); assay type: in vivo, Athymic nude mice; settings: 100 mpk Cytoxan
Protocol: as §1, §2

[5] = system: SK-N-AS neuroblatoma cells; assay: SK-N-AS neuroblastoma xenograft tumor growth in mice (03 IGFR-09, 19D12 vs. Cytoxan); assay type: in vivo, Athymic nude mice; settings: 100 mpk Cytoxan
Protocol: as §1, §2

[6] = system: SK-N-MC neuroblastoma cells; assay: SK-N-MC neuroblastoma xenograft tumor growth in mice (04 IGFR-13, 19D12 vs. Cisplatin); assay type: in vivo, Athymic nude mice; settings: Cisplatin 2 mpk

Question: Which results are given for `Cl.Nc1ccn(C2OC(CO)C(O)C2(F)F)c(=O)n1` (stereo not drawn) [Gemzar, gemcitabine, reference compound]?
Answer: Tumor Average Size ([1]; 100 mpk Gemzar, Day 0): 77 mm^3; Tumor Average Size ([1]; 100 mpk Gemzar, Day 4): 86 mm^3; Tumor Average Size ([1]; 100 mpk Gemzar, Day 7): 98 mm^3; Tumor Average Size ([1]; 100 mpk Gemzar, Day 11): 105 mm^3; Tumor Average Size ([1]; 100 mpk Gemzar, Day 14): 119 mm^3; Tumor Average Size ([1]; 100 mpk Gemzar, Day 18): 148 mm^3; Tumor Average Size ([1]; 100 mpk Gemzar, Day 21): 166 mm^3; Tumor Average Size ([1]; 100 mpk Gemzar, Day 26): 249 mm^3; Tumor Average Size ([1]; 100 mpk Gemzar, Day 29): 284 mm^3; Tumor Average Size ([1]; 100 mpk Gemzar, Day 33): 324 mm^3; Tumor Average Size ([1]; 100 mpk Gemzar, Day 36): 368 mm^3

Question: Which “Mean Tumor size” value ([2]; 50 mpk Cytoxan, Day 0) does the source give for `O=P1(N(CCCl)CCCl)NCCCO1` (stereo not drawn) [Cytoxan, cyclophosphamide, reference compound] here?
Answer: 145 mm3

Question: What about the “Mean Tumor size” value ([2]; 50 mpk Cytoxan, Day 4) of the same molecule?
Answer: 198 mm3

Question: What about the “Mean Tumor size” value ([2]; 50 mpk Cytoxan, Day 7) of the same molecule?
Answer: 287 mm3

Question: And the “Mean Tumor size” value ([2]; 50 mpk Cytoxan, Day 11)?
Answer: 614 mm3

Question: And the “Mean Tumor size” value ([2]; 50 mpk Cytoxan, Day 14)?
Answer: 908 mm3

Question: And the “Mean Tumor size” value ([2]; 100 mpk Cytoxan, Day 0)?
Answer: 149 mm3

Question: And the “Mean Tumor size” value ([2]; 100 mpk Cytoxan, Day 4)?
Answer: 132 mm3

Question: And the “Mean Tumor size” value ([2]; 100 mpk Cytoxan, Day 7)?
Answer: 193 mm3

Question: What about the “Mean Tumor size” value ([2]; 100 mpk Cytoxan, Day 11) of the same molecule?
Answer: 218 mm3

Question: And the “Mean Tumor size” value ([2]; 100 mpk Cytoxan, Day 14)?
Answer: 285 mm3

Question: And the “Mean Tumor size” value ([3]; Day 0)?
Answer: 96 mm3

Question: What about the “Mean Tumor size” value ([3]; Day 3) of the same molecule?
Answer: 111 mm3

Question: And the “Mean Tumor size” value ([3]; Day 7)?
Answer: 102 mm3

Question: What about the “Mean Tumor size” value ([3]; Day 10) of the same molecule?
Answer: 59 mm3

Question: And the “Mean Tumor size” value ([3]; Day 14)?
Answer: 140 mm3

Question: And the “Mean Tumor size” value ([3]; Day 17)?
Answer: 172 mm3

Question: What about the “Mean Tumor size” value ([3]; Day 21) of the same molecule?
Answer: 302 mm3

Question: What about the “Mean Tumor size” value ([3]; Day 24) of the same molecule?
Answer: 586 mm3

Question: And the “Mean Tumor size” value ([3]; Day 28)?
Answer: 972 mm3

Question: What about the “Tumor Average Size” value ([4]; Day 0) of the same molecule?
Answer: 75 mm^3

Question: What about the “Tumor Average Size” value ([4]; Day 4) of the same molecule?
Answer: 125 mm^3

Question: What about the “Tumor Average Size” value ([4]; Day 7) of the same molecule?
Answer: 232 mm^3

Question: And the “Tumor Average Size” value ([4]; Day 11)?
Answer: 347 mm^3

Question: And the “Tumor Average Size” value ([4]; Day 14)?
Answer: 591 mm^3

Question: And the “Tumor Average Size” value ([4]; Day 18)?
Answer: 733 mm^3

Question: And the “Tumor Average Size” value ([5]; Day 4)?
Answer: 257 mm^3

Question: And the “Tumor Average Size” value ([5]; Day 7)?
Answer: 227 mm^3

Question: What about the “Tumor Average Size” value ([5]; Day 11) of the same molecule?
Answer: 111 mm^3

Question: What about the “Tumor Average Size” value ([5]; Day -1) of the same molecule?
Answer: 122 mm^3

Question: Which results are given for `N.N.[Cl][Pt][Cl]` [Cisplatin, cisplatin, reference compound]?
Answer: Tumor Average Size ([6]; Day 0): 99 mm^3; Tumor Average Size ([6]; Day 2): 131 mm^3; Tumor Average Size ([6]; Day 6): 174 mm^3; Tumor Average Size ([6]; Day 9): 212 mm^3; Tumor Average Size ([6]; Day 13): 264 mm^3; Tumor Average Size ([6]; Day 16): 288 mm^3; Tumor Average Size ([6]; Day 20): 299 mm^3; Tumor Average Size ([6]; Day 23): 352 mm^3; Tumor Average Size ([6]; Day 24): 352 mm^3; Tumor Average Size ([1]; 5 mpk Cisplatin, Day 0): 79 mm^3; Tumor Average Size ([1]; 5 mpk Cisplatin, Day 4): 87 mm^3; Tumor Average Size ([1]; 5 mpk Cisplatin, Day 7): 96 mm^3; Tumor Average Size ([1]; 5 mpk Cisplatin, Day 11): 99 mm^3; Tumor Average Size ([1]; 5 mpk Cisplatin, Day 14): 100 mm^3; Tumor Average Size ([1]; 5 mpk Cisplatin, Day 18): 107 mm^3; Tumor Average Size ([1]; 5 mpk Cisplatin, Day 21): 113 mm^3; Tumor Average Size ([1]; 5 mpk Cisplatin, Day 26): 155 mm^3; Tumor Average Size ([1]; 5 mpk Cisplatin, Day 29): 175 mm^3; Tumor Average Size ([1]; 5 mpk Cisplatin, Day 33): 185 mm^3; Tumor Average Size ([1]; 5 mpk Cisplatin, Day 36): 173 mm^3
